Assay results from patent US20230398133A1, “USE OF B-CELL LYMPHOMA 2 (BCL-2) INHIBITOR AND PHARMACEUTICAL COMPOSITION FOR TREATING CELLULAR SENESCENCE-RELATED SKIN DISEASES” (Xeon Biopharmaceutical Limited, priority 2020, published 2023).

Tests used:
[1] = tested on: imiquimod-induced psoriasis mouse model; test: Subcutaneous injection of ABT-737 injection in imiquimod-induced psoriasis mouse model (Example 5); assay type: in vivo; conditions: subcutaneous injection 25 mg/kg/day
Protocol: Effects of subcutaneous injection of 2.5 mg/ml BCL-2 inhibitor (ABT-737 injection) on imiquimod-induced psoriasis mouse model were studied.
16 healthy female Balb/c mice at the age of 8 weeks with a body weight of 20±2 g were taken, and depilated by 2×2 cm^2 on the back of the torso. After 24 h of depilation, it was confirmed that there was no abnormal change in depilated areas, and the mice were randomly divided into 4 groups, including: (1) a normal control group (3 mice): no special operations were conducted; (2) a psoriasis mouse model group (3 mice): psoriasis model was induced by external application of imiquimod; (3) a group of subcutaneous injection of ABT-737 injection (Example 1) to treat psoriasis mouse model (hereinafter referred to as ABT-737 subcutaneous injection group, 5 mice): psoriasis model was induced by external application of imiquimod, and subcutaneous injection of 25 mg/kg/day ABT-737 was conducted for treatment (that is, 200 μl of 2.5 mg/ml ABT-737 injection was given to the above-mentioned mice); (4) a group of subcutaneous injection of blank injection (Example 3) to treat psoriasis mouse model (hereinafter referred to as blank injection for subcutaneous injection group, 5 mice): psoriasis model was induced by external application of imiquimod, and subcutaneous injection of blank injection was conducted in an equal volume with the ABT-737 subcutaneous injection group.
Except for the normal control group, the above-mentioned mice are all prepared with imiquimod-induced psoriasis models: 62.5 mg of 5% imiquimod (Sichuan Med Shine Pharmaceutical Co., Ltd.) was applied evenly with a cotton swab on the depilated areas on the back of the torso of the mouse, by once a day for 7 consecutive days with an interval of 24 h. After the modeling, the skin of the mouse back modeling in the psoriasis model group was taken for tissue paraffin embedding and routine section for HE staining observation. Compared with the normal control group, the model is established based on histological changes such as parakeratosis and spinous layer hypertrophy.
Immunohistochemical staining of p16, p21 and CD4 was conducted at the same time. The ratio of p16 and p21 positive cells of skin cellular senescence-related molecules between each group was compared under a multispectral microscope, and the infiltration degree of CD4^+ T cells in the skin between each group was compared (FIG. 3). • (3) In addition, the skin specimens of the back modeling sites of the torso of a total of 10 mice in the ABT-737 subcutaneous injection group and the blank injection for subcutaneous injection group were taken, added to an RNA protection solution, cut and ground to prepare a single cell suspension. […]

[2] = tested on: imiquimod-induced psoriasis mouse model; test: External application of ABT-737 gel and intraperitoneal injection of ABT-737 injection in imiquimod-induced psoriasis mouse model (Example 6); assay type: in vivo; conditions: intraperitoneal injection 25 mg/kg/day
Protocol: Effects of external application of BCL-2 inhibitor ABT-737 gel (Example 2) and intraperitoneal injection of 2.5 mg/ml BCL-2 inhibitor ABT-737 injection (Example 1) on imiquimod-induced psoriasis mouse model was studied.
19 healthy female Balb/c mice at the age of 8 weeks with a body weight of 20±2 g were taken, and depilated by 2×2 cm^2 on the back of the torso. After 24 h of depilation, it was confirmed that there was no abnormal change in depilated areas, and the mice were randomly divided into 5 groups, including: (1) a psoriasis mouse model group (3 mice): psoriasis model was induced by external application of imiquimod; (2) a group external application of ABT-737 gel (Example 2) for treating psoriasis mouse model (hereinafter referred to as ABT-737 gel treatment group, 5 mice): psoriasis model was induced by external application of imiquimod, and each mouse was treated with ABT-737 gel 0.5 g/day for external application; (3) a group of external application of blank gel (Example 4) to treat the psoriasis mouse model (hereinafter referred to as the blank gel control group, 5 mice): the psoriasis model was induced by external application of imiquimod, and each mouse was treated with blank gel the same amount as the ABT-737 treatment group by external application; (4) a group of intraperitoneal injection of BCL-2 inhibitor ABT-737 injection (Example 1; hereinafter referred to as ABT-737 intraperitoneal injection treatment group, 3 mice): psoriasis model was induced by external application of imiquimod, and each mouse was treated by intraperitoneal injection of 25 mg/kg/day of ABT-737 (that is, 200 μl of 2.5 mg/ml ABT-737 injection was given to the above-mentioned mice); (5) a group of blank injection for intraperitoneal injection (Example 3; hereinafter referred to as blank injection for intraperitoneal injection group, 3 mice): psoriasis model was induced by external application of imiquimod, and each mouse was treated by intraperitoneal injection of 200 μl of blank injection. […]

[3] = vs blank injection for subcutaneous injection group, FIG. 3

CN(C)CC[C@H](CSc1ccccc1)Nc1ccc(S(=O)(=O)NC(=O)c2ccc(N3CCN(Cc4ccccc4-c4ccc(Cl)cc4)CC3)cc2)cc1[N+](=O)[O-] [ABT-737]
dermal inflammatory cells (HE staining) ([1]; FIG. 2): significantly reduced
downward extension of epidermal protrusions on the back skin lesions (HE staining) ([1]; FIG. 2): significantly reduced
spinous cell layer (HE staining) ([1]; FIG. 2): thinned
systemic damage ([1]; conclusion from spleen and DLN T cell subsets): without any systemic damage
appearance of skin at the modeling site: skin swelling, skin thickening and scales ([1]; vs blank injection for subcutaneous injection group and psoriasis model group, FIG. 1): significant improvement
proportion of CD4+ cells infiltrated by dermal inflammation (immunohistochemistry) [1, 3]: significantly reduced
proportion of senescent cells staining positive in p16 and p21 in paraffin sections of skin lesions (immunohistochemistry) [1, 3]: significantly reduced
mRNA expression levels of genes corresponding to P16, P21, BCL-2, INF-7 and IL17A in skin (real-time quantitative PCR) ([1]; vs blank injection for subcutaneous injection group, FIG. 4): decrease significantly
improvement of the skin lesions of the mouse model (skin appearance) ([2]; FIG. 6): better than the psoriasis model group, the blank gel control group and the blank injection for intraperitoneal injection group, but is slightly inferior to the ABT-737 gel treatment group
improvement of the skin lesions of the mouse model (HE pathological sections) ([2]; FIG. 7): better than the psoriasis model group, the blank gel control group and the blank injection for intraperitoneal injection group, but is slightly inferior to the ABT-737 gel treatment group
reduction of p16, p21, CD4 and BCL2 positive cells (immunohistochemistry) ([2]; FIG. 8): better than the blank gel control group and the blank injection for intraperitoneal injection group, but is slightly inferior to the ABT-737 gel treatment group
